According to patent US12139458B2, “(2,5-dioxopyrrolidin-1-yl)(phenyl)-acetamide derivatives and their use in the treatment of neurological diseases” (UNIWERSYTET JAGIELLONSKI, priority 2019, dated 2024):

Assays:
Type in all cases: in vivo
[1] = system: male Swiss albino mice (CD-1); assay: Maximal electroshock seizure test (MES); details: 0.5 h, mice
In short: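 Seizures were induced by auricular electroshock (25 mA, 500 V, 0.2 s) 30 min after a single i.p. dose in 1% aqueous Tween, scoring hind-limb tonic extension. Animals were male Swiss CD-1 mice, 18–26 g; ED50 was estimated from 3–4 dose groups of 6.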

[2] = system: male Swiss albino mice (CD-1); assay: Psychomotor seizure test 6 Hz (32 mA); details: 0.5 h, mice; for ED50 6 Hz (32 mA): i.p.
In short: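 Compounds given i.p. in 1% aqueous Tween 30 min before a 3 s ocular stimulus (32 mA and/or 44 mA, 6 pulses/s) after lidocaine; mice normal within 10 s counted protected. ED50 from 3-4 groups of 6 mice; screening on groups of 4.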

[3] = system: male Swiss albino mice (CD-1); assay: Psychomotor seizure test 6 Hz (44 mA); details: 0.5 h, mice
Procedure: (§1) All procedures were carried out in accordance with applicable Polish and international guidelines on the ethics of animal testing, after obtaining appropriate institutional approval. The substances were administered intraperitoneally (i.p.), in 1% aqueous solution of Tween, as single injections with a volume of 10 ml/kg, 30 minutes before the given test. Screening was performed on groups consisted of 4 mice. […] All tests were carried out based on the procedures described in the specialist literature.
In the 6 Hz test, seizures were induced by an electric stimulus of 32 mA and/or 44 mA and a frequency of 6 pulses per second. […] Before starting the test, the eye surface was gently moistened with a solution of local anesthetic (1% lidocaine solution). The study was conducted 30 minutes after intraperitoneal administration of the compounds at various doses. An electrical pulse was delivered continuously for a period of 3 seconds, followed by observation of the animal for a period of 10 seconds. During this time, immobility or stun associated with rearing, forelimb clonus, twitching of the vibrissae and Straub's tail were observed. These symptoms persist throughout the observation period, indicating the occurrence of psychomotor seizures in mice.
(§2) To perform a statistical evaluation of the results, one-way ANOVA variance analysis and Dunnett's post hoc test (multiple comparison test) were used. The value at the significance level p<0.05 was considered statistically significant.

[4] = system: male Swiss albino mice (CD-1); assay: Subcutaneous pentylenetetrazole seizure test (scPTZ); details: 0.5 h, mice
In short: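 Compounds given i.p. in 1% aqueous Tween 30 min before s.c. PTZ at 100 mg/kg. Mice observed 30 min for clonic seizures (whole-body clonus ≥3 s with loss of righting reflex); absence counted as protection. ED50 from 3-4 groups of 6 mice; screening in groups of 4.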

[5] = system: male Swiss albino mice (CD-1); assay: Rotarod test (motor coordination); details: i.p., 0.5 h
Procedure: as §1
Mice were trained the day before the actual experiment. They were placed individually on a 2 cm diameter rod rotating at 10 revolutions per minute (rpm). During each training session, the animals remained on the rod for 3 minutes. The experiment was carried out 30 minutes after administration of the compounds. Motor coordination was tested at the speed of the rotating bar: 10 rpm during 60 seconds. Motor impairments were defined as the inability to remain on the rotating rod for 1 min.
as §2

[6] = system: male white Swiss mice (CD-1); assay: Formalin test (analgesic activity)
Procedure: (§3) The tests were carried out using male white Swiss mice (CD-1) weighing 18-25 g. All procedures were carried out in accordance with Polish and international guidelines on ethics of animal testing, after obtaining appropriate institutional approval. The study group consisted of 8-10 animals. The tested and reference substances were administered intraperitoneally 30 minutes before given test as suspension in 1% aqueous solution of Tween. All tests/models were carried out based on the procedures described in the specialist literature: the formalin test (Beirith, A.; Santos, A. R.; Calixto, J. B.; Rodrigues, A. L.; Creczynski-Pasa, T. B. Eur. J. Pharmacol. 1998, 345, 233-245), the model of capsaicin-induced pain (Mogilski, S.; Kubacka, M.; Redzicka, A.; Kazek, G.; Dudek, M.; Malinka, W.; Filipek, B. Pharmacol. Biochem. Behav. 2015, 133, 99-110), the model of oxaliplatin-induced neuropathic pain—von Frey test (Sałat, K.; Cios, A.; Wyska, E.; Satat, R.; Mogilski, S.; Filipek, B.; Wigȩkowski, K.; Malawska, B. Pharmacol. Biochem. Behav. 2014, 122, 173-181).
The pain was induced by the subplantar injection of 20 μL of 2.5% formalin solution into the mice right hind paw. The animals were placed in separate, transparent observation chambers for a period of 30 minutes. The measured value was the total licking and biting time of the paw to which the formalin solution was injected. The nociceptive reaction time was calculated for the first 5 minutes after formalin injection (first phase of the test—acute pain) and in the 15-20, 20-25 and 25-30 minutes time intervals after its administration (second phase of the test—inflammatory pain). The observed inhibition of nociceptive reaction—reduction of paw licking and biting time, was interpreted as the analgesic effect of the compound tested. Based on the results obtained, the ED50 dose was calculated (dose that reduces the nociceptive reaction time by 50%). […] Compound 6 was administered at doses of 10 mg/kg, 20 mg/kg and 30 mg/kg.

[7] = system: male white Swiss mice (CD-1); assay: Capsaicin-induced pain model; details: 200 mg/kg i.p.
Procedure: as §3
This test assesses the time of licking and/or biting the hind paw into which mice were injected subplantarly with capsaicin in an amount of 1.6 μg, dissolved in 20 μl of a mixture containing 0.9% saline and ethanol (5% of the final volume). Observation was carried out […] after capsaicin administration. Test compounds were administered intraperitoneally 30 minutes before administration of capsaicin. Inhibition of nociceptive reaction—shortening the time of licking and biting the paw was the measure of antinociceptive activity of the compound tested.
Valproic acid (VPA) was the reference compound in this test. […] Compound 6 was administered at 20 mg/kg, 30 mg/kg and 40 mg/kg. Test compounds were administered as a suspension in 1.0% Tween 80 solution. The control group consisted of mice treated with vehicle alone (1% Tween 80 solution). The nociceptive reaction time in this group was 43.29±3.21 seconds.

[8] = system: male white Swiss mice (CD-1); assay: Oxaliplatin-induced neuropathic pain, von Frey test; details: baseline 2.62±0.06 g, after OXPT 1.78±0.04 g
Procedure: as §3
Oxaliplatin (OXPT) was dissolved in a 5% glucose solution, followed by intraperitoneal administration to mice. A single dose of 10 mg/kg was used. Tactile and thermal (sensation of low temperature) allodynia associated with oxaliplatin-induced neuropathy are characterized by two phases. The early phase is acute and develops soon after administration of the OXPT, while the symptoms of the later (chronic) phase (associated with neurons damage), develops after a few days. Behavioral tests in mice with OXPT-induced neuropathy were carried out 7 days after its administration, i.e. in the late phase of neuropathy.
The influence of compounds tested on tactile allodynia was determined in the von Frey test. The animals were placed individually in cages with a reticulated bottom, 60 minutes before the beginning of the experiment, in order to adapt to the new environment. An electronic Von Frey apparatus (Electronic Von Frey, Bioseb, France) was used to assess the pain threshold for mechanical stimuli. The von Frey's fiber was applied to the underside of the right mouse paw with increasing pressure. […] The measurement was performed 3 times for each mouse, with at least 30 seconds between the measurements, then the results obtained were averaged. The entire study was performed 3 times: before OXPT administration to determine the baseline pain threshold; 7 days after administration of OXPT, and before administration of test compounds, to assess developing neuropathy by setting a new pain threshold; 30 minutes after administration of the compounds to determine their influence developed neuropathy.
Compound 6 was administered at doses of 10, 20 and 30 mg/kg.

Row | Compound | ED50 MES ([1]; i.p.) [mg/kg] | MES: number of mice protected/number of mice tested ([1]; screening, 100 mg/kg i.p.) | ED50 6 Hz (32 mA) [2] [mg/kg] | 6 Hz (32 mA): number of mice protected/number of mice tested ([2]; screening, 100 mg/kg i.p.) | ED50 6 Hz (44 mA) ([3]; i.p.) [mg/kg] | 6 Hz (44 mA): number of mice protected/number of mice tested ([3]; screening, 100 mg/kg i.p.) | ED50 scPTZ ([4]; i.p.) [mg/kg] | scPTZ: number of mice protected/number of mice tested ([4]; screening, 100 mg/kg i.p.) | TD50 [5] [mg/kg] | ED50 ([2]; Mus musculus, ip) [mg/kg] | ED50 ([6]; Mus musculus, ip, phase II (inflammatory pain, 15-30 min), i.p., mice, read-out: ED50 in the second phase of the formalin test) [mg/kg] | analgesic activity in the first phase of the formalin test ([6]; phase I, 100, 150 and 200 mg/kg i.p.) | analgesic activity, capsaicin test [7] [%] | nociceptive reaction time, capsaicin test ([7]; control 43.29±3.21 seconds) [s] | pain threshold, von Frey test ([8]; 50 mg/kg i.p.) [g] | pain threshold, von Frey test ([8]; 100 mg/kg i.p.) [g] | pain threshold, von Frey test ([8]; 150 mg/kg i.p.) [g]
1 | O=C(C(c1ccccc1)N1C(=O)CCC1=O)N1CCN(c2cccc(SC(F)(F)F)c2)CC1 (stereo not drawn) [Compound 12] | 36.2 | 4/4 | 15.8 | 4/4 | 57.9 | ¾ | >100 | 4/4 | 150.0 | – | – | – | – | – | – | – | –
2 | CCCC(CCC)C(=O)O [VPA, valproic acid, reference compound] | – | – | 130.6 | – | – | – | – | – | – | 131 | 133 | no analgesic activity | 42.25 | 25.00 ± 4.57 | 2.75 ± 0.06 | 3.18 ± 0.14 | 3.97 ± 0.30
